From PubChem BioAssay (NCI)
Where “and” joins values, the source holds several entries; their conditions need not be identical. Identical values can stand only once.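 Following 48 hours of exposure in 96-well plates, responses at five concentrations were used to interpolate endpoints linearly. GI50 = concentration required for 50% inhibition of growth. Definition used: TGI = concentration required for complete inhibition of growth.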

What was measured:
Experiment in all cases: NCI tumour cell line growth inhibition, 48 h
A498 renal = test system: A498 renal
CCRF-CEM leukemia = test system: CCRF-CEM leukemia
HCT-116 colon = test system: HCT-116 colon
MDA-MB-231 breast = test system: MDA-MB-231 breast
NCI-H226 lung = test system: NCI-H226 lung
NCI-H460 lung = test system: NCI-H460 lung
OVCAR-5 ovarian = test system: OVCAR-5 ovarian
OVCAR-8 ovarian = test system: OVCAR-8 ovarian
SK-MEL-28 melanoma = test system: SK-MEL-28 melanoma
SNB-75 CNS = test system: SNB-75 CNS

Row | Compound | GI50 (A498 renal) | TGI (A498 renal) | GI50 (CCRF-CEM leukemia) | TGI (CCRF-CEM leukemia) | GI50 (HCT-116 colon) | TGI (HCT-116 colon) | GI50 (MDA-MB-231 breast) | TGI (MDA-MB-231 breast) | GI50 (NCI-H226 lung) | TGI (NCI-H226 lung) | GI50 (NCI-H460 lung) | TGI (NCI-H460 lung) | GI50 (OVCAR-5 ovarian) | TGI (OVCAR-5 ovarian) | GI50 (OVCAR-8 ovarian) | TGI (OVCAR-8 ovarian) | GI50 (SK-MEL-28 melanoma) | TGI (SK-MEL-28 melanoma) | GI50 (SNB-75 CNS) | TGI (SNB-75 CNS)
1 | COC(=O)c1ccc(CN2C(=O)C(Cl)=C(Nc3cccc(Cl)c3C)C2=O)cc1 | 2.54 µM | 15.2 µM | 3.32 µM | > 100 µM | 4.44 µM | > 100 µM | 6.15 µM | 47.3 µM | 11 µM | > 100 µM | 34.5 µM | > 100 µM | 58.1 µM | > 100 µM | 37.2 µM | > 100 µM | 15.2 µM | > 100 µM | 14.8 µM | 95 µM
2 | CCC(C)Nc1ccc(N)cc1 (stereo not given) | 7.9 µM | 23.4 µM | 3.33 µM | 17.9 µM | 2.73 µM | 8.73 µM | 2.91 µM | 12.8 µM | 4.39 µM | 19 µM | 3.85 µM | 13.9 µM | 13.8 µM | 39.8 µM | 4.19 µM | 22.2 µM | 6.37 µM | 18.9 µM | 4.25 µM | 20.3 µM
3 | CNC(=O)c1cc(Oc2ccc(NC(=O)Nc3ccc(Cl)c(C(F)(F)F)c3)c(F)c2)ccn1 | 2.75 µM and 1.82 µM | 7.25 µM and 5.73 µM | 2.24 µM and 2.51 µM | 7.01 µM and 8.88 µM | 0.944 µM and 0.792 µM | 10.8 µM and 8.8 µM | 1.22 µM and 1.26 µM | 4.44 µM and 4.92 µM | 2.15 µM and 0.988 µM | 8.01 µM and 8.05 µM | 2.67 µM and 2.86 µM | 9.42 µM and > 10 µM | 2.68 µM and 2.3 µM | > 44.4 µM | 2.39 µM and 2.31 µM | > 20.8 µM and 8.28 µM | 1.57 µM and 1.3 µM | 6.28 µM and 8.13 µM | 1.71 µM and 1.67 µM | 7.01 µM and > 10 µM
4 | CCc1ccc(CCC(=O)Nc2ncc(Cc3ccc(Cl)cc3)s2)o1 | 0.208 µM | 0.844 µM | 0.352 µM | > 100 µM | 0.427 µM | > 100 µM | 0.699 µM | > 100 µM | – | > 100 µM | 0.335 µM | > 100 µM | 0.615 µM | > 100 µM | 0.572 µM | > 100 µM | 4.27 µM | > 100 µM | 0.195 µM | 0.771 µM
5 | NC(=O)c1cc([N+](=O)[O-])c(Cl)c([N+](=O)[O-])c1Cl | 1.9 µM | 4.58 µM | 0.4 µM | 2.38 µM | 0.228 µM | 0.582 µM | 1.79 µM | 3.39 µM | 1.79 µM | 3.36 µM | 1.74 µM | 3.49 µM | 2.3 µM | 4.59 µM | 1.26 µM | 2.56 µM | 1.74 µM | 3.15 µM | 1.77 µM | 3.69 µM
6 | Nc1nc([Se])c2ncn(C3OC(CO)C(O)C3O)c2n1 (stereo not given) | 17 µM | > 100 µM | 2.28 µM | > 100 µM | 4 µM | > 100 µM | 2.81 µM | 69.8 µM | 9.29 µM | > 100 µM | 4.54 µM | 57.1 µM | 8.24 µM | > 100 µM | 3.86 µM | > 100 µM | > 100 µM | > 100 µM | > 100 µM | > 100 µM
7 | COc1ccc2c(c1)c(-c1nc(-c3c[nH]c4ccncc34)cs1)cn2C | 1.65 µM | 3.09 µM | 1.83 µM | 3.64 µM | 1.69 µM | 3.22 µM | 1.45 µM | 2.95 µM | 1.88 µM | 3.9 µM | 1.73 µM | 3.31 µM | 1.64 µM | 3.06 µM | 1.99 µM | 3.82 µM | 1.63 µM | 3.04 µM | 1.52 µM | 2.91 µM
8 | CCOC(=O)Oc1cc2c(c(OC)c1OC)-c1ccc(OC)c(=O)cc1C(NC(C)=O)CC2 (stereo not given) | – | 3.38 µM | – | > 21.5 µM | – | 1.85 µM | – | > 90.2 µM | – | 0.787 µM | – | 6.67 µM | – | > 100 µM | – | 19.7 µM | – | > 100 µM | – | > 16.9 µM
9 | CCC(C)[C@H](NC(=O)Nc1cc(C(F)(F)F)cc(C(F)(F)F)c1)C(=O)N[C@@H](Cc1cn(C)cn1)C(=O)OC (stereo not given in full) | 1.6 µM | 3.4 µM | 0.0146 µM | 1.45 µM | 0.606 µM | 1.21 µM | 0.619 µM | 1.12 µM | 0.571 µM | 1.29 µM | 0.895 µM | 1.89 µM | 1.32 µM | 1.83 µM | 0.634 µM | 1.33 µM | 0.572 µM | 1.1 µM | 0.924 µM | 1.82 µM
10 | CN(C)c1ccc2oc(=O)c3ccccc3c2c1 | – | > 100 µM | – | > 100 µM | – | > 100 µM | – | 82.9 µM | – | > 100 µM | – | > 100 µM | – | > 100 µM | – | > 100 µM | – | > 100 µM | – | 61.8 µM
11 | Cc1ccc(S(=O)(=O)SC(C)(C)C)cc1 | – | > 100 µM | – | 39.2 µM | – | 31.8 µM | – | 47.6 µM | – | > 100 µM | – | > 100 µM | – | > 76 µM | – | 48.3 µM | – | > 100 µM | – | > 100 µM
12 | COc1ncc(Nc2ncc([C@@H](C)N3CCN(S(C)(=O)=O)CC3)cc2-c2nc(C)nc(N)n2)cc1F | < 0.01 µM | 0.0309 µM | 0.145 µM | > 54.1 µM | 1.87 µM | > 100 µM | 1.59 µM | 13.9 µM | 2.59 µM | > 100 µM | 0.135 µM | > 100 µM | < 0.0266 µM | – | 2.2 µM | > 100 µM | 0.0534 µM | > 36.6 µM | < 0.01 µM | 0.0585 µM
13 | CC(C)(C)C1CCC2c3c([nH]c4ccccc34)C3C(=O)N(c4ccc(Cl)cc4)C(=O)C3C2C1 (stereo not given) | – | > 10 µM | – | 47.3 µM and > 10 µM | 65.3 µM and > 10 µM | > 100 µM | 56.1 µM and > 10 µM | > 100 µM | 72.8 µM and > 10 µM | > 100 µM | 37.2 µM and > 10 µM | > 100 µM | – | 0.256 µM | > 100 µM | > 100 µM | > 100 µM | > 100 µM | > 100 µM | > 100 µM
14 | COc1ccc2c(c1)[nH]c(=O)c1c3cccc(F)c3cn21 | 0.0625 µM | > 100 µM | 0.0282 µM | 0.304 µM | 0.0458 µM | 13.9 µM | 0.283 µM | > 100 µM | 12.1 µM | 44.7 µM | 0.0442 µM | 11.7 µM | 0.508 µM | > 100 µM | 0.129 µM | > 73.3 µM | 0.351 µM | > 69.8 µM | 0.0262 µM | 5.44 µM
15 | COc1ccc2c(c1)nc(C(=O)c1ccco1)c(C(F)(F)F)[n+]2[O-] | > 100 µM | > 100 µM | > 100 µM | > 100 µM | > 100 µM | > 100 µM | > 100 µM | > 100 µM | > 100 µM | > 100 µM | > 100 µM | > 100 µM | > 100 µM | > 100 µM | > 100 µM | > 100 µM | > 100 µM | > 100 µM | 51.4 µM | > 100 µM
